Here are results for six molecules from PMC9414233, “Iridoid Glycosides Isolated from Bellardia trixago Identified as Inhibitors of Orobanche cumana Radicle Growth” (Toxins, 2022).

The subject of assay [1] is Orobanche cumana radicles. In words: Orobanche cumana radicle growth bioassay. The class given is in vivo. Conditions: for inhibition at 100 µg/mL: 168 h; for inhibition at 100 µg/mL / inhibition of radicle growth: 100 μg/mL, 7 days, relative to control (GR24 + 2% DMSO), ± standard error. As to the method: Allelopathic effects of each B. trixago extracts and isolated compounds were tested on Orobanche radicle growth according to previous protocols. Seeds of Orobanche cumana, were surface-sterilized by immersion in 0.5% (w/v) NaOCl and 0.02% (v/v) Tween 20, for 5 min, rinsed thoroughly with sterile distilled water, and dried in a laminar airflow cabinet. Approximately 100 seeds of Orobanche seeds were placed separately on 9 mm-diameter glass fiber filter paper disks (GFFP) (Whatman International Ltd., Maidstone, UK), moistened with 50 μL of sterile distilled water, and placed in incubators at 23 °C for 10 days inside Parafilm-sealed Petri dishes, to allow seed conditioning. Then, GFFP disks containing conditioned Orobanche seeds were transferred onto a sterile sheet of filter paper and transferred to new 9 cm sterile Petri dishes. Stock solutions of each B. trixago extract and isolated metabolite were respectively dissolved in dimethyl sulfoxide and subsequently individually diluted to 100 μg/mL using an aqueous solution of GR24 (10^−6 M). The final concentration of dimethyl sulfoxide was 2% in all test treatments. For each assay, 50 μL aliquots of each sample were applied to GFFP discs containing conditioned Orobanche seeds. Triplicate aliquots of a treatment only containing GR24 and 2% dimethyl sulfoxide was used as a control. Treated seeds were incubated in the dark at 23 °C for 7 days and radicle growth was determined for each GFFP disc, using a stereoscopic microscope (Leica S9i, Leica Microsystems GmbH, Wetzlar, Germany). For the characteristic of radicle growth, the value used was the average of 10 randomly selected radicles per GFFP disc. The percentage of radicle growth inhibition of each treatment was then calculated relative to the average radicle growth of control treatment.

Assay [2] relates to radicles of Orobanche crenata. More on the design: method as in PMID 24044614. The note with it: cited from earlier work.
Details of assay [3]: method as in doi:10.1076/phbi.37.4.318.5808, PMID 12036030. The note with it: cited from earlier work.
On the set-up of assay [4]: method as in doi:10.1076/phbi.37.4.318.5808. The note with it: cited from earlier work.
Assay [5] has as its system Raphidocelis subcapitata. In words: Algal growth inhibition test (ISO 8692:2012). The class given is in vivo. The note with it: 72 h. As to the method: (§1) The ecotoxicological tests were carried out on green freshwater algae Raphidocelis subcapitata, macrophyte Lepidium sativum, water flea Daphnia magna, nematode Caenorhabditis elegans and bacterium Aliivibrio fischeri to expand the range of endpoints due to differences in species sensitivity and exposure. Testing on R. subcapitata was performed using as endpoint the algal growth inhibition after 72 h of exposure and was based on ISO 8692:2012 [65]. The algal density was determined by spectrophotometric analysis (DR5000, Hach Lange GbH, Weinheim, Germany). Ecotoxicity tests were carried out in triplicate, at 25 ± 1 °C with constant illumination of 6700 lux. Testing on L. sativum was performed according to ISO 11269-1:2012 [66] considering germination and root elongation as endpoint after 72 h. Seeds (n = 10) were exposed in triplicate in Petri dishes and incubated at 25 ± 1 °C in darkness. Daphnia magna test was conducted according to UNI EN ISO 6341:2013 [67] and the endpoint evaluated was the immobilization after 24 h. Daphnids (less than 24 h old) were exposed to the samples at 20 ± 2 °C, in darkness without feeding. Testing on C. elegans was carried out, with a few modifications, according to the ASTM E2172-01 Standard Method (2014) using the 24 h mortality endpoint. The test was performed using age-synchronous adult nematodes exposed at 20 °C to compound 4, without feeding. […]

Assay [6] concerns Lepidium sativum. Put plainly: whole plant or invertebrate. The class given is in vivo. The note with it: 72 h, read-out: EC50 (germination and root elongation). As to the method:
as §1

Assay [7] deals with Daphnia magna. Put plainly: Daphnia magna immobilization test (UNI EN ISO 6341:2013). The class given is in vivo. Conditions: 24 h. As to the method: as §1
Assay [8] relates to Caenorhabditis elegans. Put plainly: C. elegans 24 h mortality test (ASTM E2172-01). The assay is classed as in vivo. On the procedure:
as §1

In assay [9] the test system is Aliivibrio fischeri. In words: Bioluminescence inhibition test (ISO 11348-3:2007, Microtox). The note with it: 0.5 h, 30 min. The assay is classed as in vivo. On the procedure:
as §1

The test system of assay [10] is Wistar rats. More on the design: method as in PMID 23195582. Conditions: cited from earlier work.

Structures are written as SMILES. ≈ marks a conversion by molar mass, not a printed value.

On to `OCC1=CC[C@@H]2C=CO[C@@H](O[C@@H]3O[C@H](CO)[C@@H](O)[C@H](O)[C@H]3O)[C@H]12` [Compound 2, bartsioside], for which, in [1], the inhibition at 100 µg/mL worked out at 61.1 ± 1.5%.
In the case of `O=C(O)c1ccccc1` [Compound 1, benzoic acid], the “inhibitory activity on radicles” value in [2] is “moderate inhibitory activity”.
With `OCC1=C[C@@H](O)[C@@H]2C=CO[C@@H](O[C@@H]3O[C@H](CO)[C@@H](O)[C@H](O)[C@H]3O)[C@H]12` [Compound 3, aucubin], in assay [1], the “inhibition of radicle growth” value is given as “no significant inhibitory activity”. In [3], the DPPH scavenging activity result is “no DPPH scavenging activity”. Moreover, the “antioxidant activity in β-carotene bleaching assay” value (shortened to “antioxidant activity”) in assay [4] was “inactive”.
Consider `COC(=O)C1=CO[C@@H](O[C@@H]2O[C@H](CO)[C@@H](O)[C@H](O)[C@H]2O)[C@H]2[C@@H]1CC[C@]2(C)O` [Compound 6, mussaenoside], for which the inhibition at 100 µg/mL in assay [1] amounted to 65.9 ± 2.9%. Besides, the DPPH scavenging activity entry in assay [3] is on record as “no DPPH scavenging activity”. Also, the “antioxidant activity” value in [4] was “antioxidant”.
As to `O=C(OCC1=C[C@@H](O)[C@@H]2C=CO[C@@H](O[C@@H]3O[C@H](CO)[C@@H](O)[C@H](O)[C@H]3O)[C@H]12)c1ccccc1` [Compound 4, melampyroside], the “phytotoxicity observed on radicles” value in assay [1] (100 µg/mL) is “some degree of phytotoxicity observed as darkening”. In addition, the inhibition at 100 µg/mL in assay [1] stood at 72.6%. Moreover, the EC50 in [5] was at least 100 µg/mL; in [6] it was at least 100 µg/mL; in [7] it was 33.3 µg/mL (≈ 73.8 µM); in [8], 57.2 µg/mL (≈ 127 µM); in assay [9], 76 µg/mL (≈ 169 µM). Moreover, in assay [3], the DPPH scavenging activity result is reported as “no DPPH scavenging activity”. In [4], the “antioxidant activity” value was “pro-oxidant”. Besides, the cardioactivity result in assay [10] is “cardioactive”.
For the molecule `C=C1[C@H]2[C@H](O[C@@H]3O[C@H](CO)[C@@H](O)[C@H](O)[C@H]3O)OC=C(C(=O)OC)[C@H]2C[C@@H]1O` [Compound 5, gardoside methyl ester], the “inhibition of radicle growth” value in assay [1] is “no significant inhibitory activity”.

As usually defined, the inhibition is how much of the control response was suppressed. What is called EC50 is the concentration at which the effect is half-maximal.
